Assays:
[1] = tested on: bacterial strains from dental infectious diseases; settings: reported in the literature; increasingly resistant strains; cited from earlier work
Porphyromonas gingivalis = settings: reported in the literature; cited from earlier work
[2] = Gastrointestinal absorption of compound 1 after oral administration (plasma AUC); format: in vivo, Sprague-Dawley rats; settings: rat; for AUC: male, Sprague-Dawley, compound 1 as free acid in plasma
Method: Seven-week old male Sprague-Dawley rats orally received 70.5 mg/kg (57.1 mg (potency)/kg) of compound 1 and 57.1 mg/kg of disodium ethylenediaminetetraacetate. Controls orally received 70.5 mg/kg of compound 1 alone. At 0.1-10 hours after administration, blood was collected. The concentration of compound 1 as free acid in plasma was determined by high-performance liquid chromatography. For determination, plasma was used after pretreatment. That is, 0.2 mL of plasma was stirred with 0.2 mL of acetonitrile and then centrifuged at 4° C., 12000 rpm for 15 min. Two hundreds μL of this supernatant was diluted in 800 μL of 10 mM phosphate buffer, and 200 μL of this dilution was applied on a high-performance liquid chromatography column. The chromatography conditions were as follows. A stainless steel high-performance liquid chromatographic column packed with octadecylsilyl silica gel was used. The column temperature was room temperature. The mobile phase consisted of a binder containing 680 mL of a 20 mM aqueous sodium dihydrogenphosphate solution adjusted at pH 2 with phosphoric acid and 320 mL of acetonitrile. The flow rate was controlled at 1 mL/min. For detection, a UV absorption spectrometer was used at a wavelength of 318 nm.

[3] = tested on: methicillin-sensitive Staphylococcus aureus (MSSA), Streptococcus pyrogenes and Streptococcus pneumoniae, penicillin-resistant pneumococci (PRSP), oral …; settings: reported in the literature; gram-positive bacteria incl. strains where conventional β-lactams are ineffective; cited from earlier work

SMILES: C[C@@H](O)[C@H]1C(=O)N2C(C(=O)O)=C([C@H]3CCCO3)S[C@H]12 [compound 1, Sodium (+)-(5R,6S)-6-[(R)-1-hydroxyethyl]-7-oxo-3-[(R)-2-tetrahydrofuryl]-4-thia-1-azabicyclo[3.2.0]hept-2-ene-2-carboxylate 5/2 hydrate]
- Antibacterial activity [1]: potent antibacterial activity
- Antibacterial activity (Porphyromonas gingivalis): potent antibacterial activity
- Change of AUC versus control group ([2]; group coadministered with disodium ethylenediaminetetraacetate compared with compound 1 alone): approximately doubled
- AUC ([2]; 70.5 mg/kg compound 1 with 57.1 mg/kg disodium ethylenediaminetetraacetate): 24800 ± 9300 ng·h/mL
- AUC ([2]; control group: 70.5 mg/kg compound 1 alone): 12600 ± 5700 ng·h/mL
- Antibacterial activity [3]: potent antibacterial activity
